Experimental findings from paper PMC6225185 (2018) are described below.

Assay [1] has as its system [d-(TTGGGGT)]4 (DNA, G4) TTGGGGT. As to the kind of experiment: DSC. Particulars: 100 mM KCl, 10 mM K2HPO4; 1 mM EDTA, pH 7.0; 50 µM quadruplex, D/N = 4.0 (200 µM daunomycin); third transition.
Assay [2] has the same test system. As to the kind of experiment: 1H NMR titration (T7H6 and T7CH3 shifts). Particulars: 100 mM KCl, 10 mM K2HPO4; 1 mM EDTA, pH 7.0, 25 °C, 90% H2O/10% D2O; site 1 of 2 (G6-T7); apparent.
In assay [3] the test system is [d-(TTGGGGT)]4 immobilized (SPR) (DNA, G4) TTGGGGT. Nature of the assay: SPR steady state. Particulars: 100 mM KCl; 10 mM HEPES, 3 mM EDTA, 0.005% P20, pH 7.4, 25 °C; dominant mode.

In the case of `COc1cccc2c1C(=O)c1c(O)c3c(c(O)c1C2=O)C[C@@](O)(C(C)=O)C[C@@H]3O[C@H]1C[C@H](N)[C@H](O)[C@H](C)O1`, the ΔTm3 in assay [1] was determined as 14.4 ± 1.1 °C. Further, the Kb in assay [2] is reported as ~ 1.8–2.3 × 10^4 M^−1; in assay [3] it was ~ 4.1 × 10^3 M^−1.
